# In patent US7495027B2, “3-aryl-4-hydroxyfuranone compounds and the human and animal health use thereof” (Wyeth, priority 2003, dated 2009):
# Legend:
# C. elegans = assay: Efficacy against nematodes (C. elegans motility rating); parameters: key: 0: no effect; 7: reduced movement in 24 h; 8: dead in 24 h; 9: dead in 4 h; details: observations at 4 h and 24 h postimmersion
# Outline: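 Mixed-stage C. elegans (~50 per well, L1 to adult) in M9 buffer exposed to test compound at 100 ppm, 150 ppm or 200 μM final. Motility of larvae and adults scored under dissecting microscope at 4 h and 24 h.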
# [1] = tested on: Trichostrongylus columbriformis; assay: In vivo efficacy against T. colubriformis in infected gerbils; details: gerbils infected with T. colubriformis; single oral dose of 50 mg/kg by gavage; worm counts four days post-treatment; % mortality as compared to negative control
# Outline: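 Gerbils infected with ~800 L3/mL larvae were treated one week later by gavage with a single 50 mg/kg oral dose in PEG 400:DMSO (1:2 v/v), 3 animals per group. Necropsy four days post-treatment, with worms counted under stereoscopes.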
# [2] = Toxicity in treated gerbils (deaths or significant weight loss); format: in vivo; parameters: key: +: Toxicity is indicated for those groups having one or more animals expired; details: single oral dose of 50 mg/kg, groups of 3
# Experimental: In this evaluation, gerbils are infected with Trichostrongylus columbriformis infective larvae at a concentration of approximately 800 L3/mL. Larvae for gerbil infections are cultured from feces from sheep previously infected with T. colubriformis. One week post infection, test compounds are administered by gavage as a single oral dose of 50 mg/kg of body weight. For each group of 3 gerbils, 10 mg of test compound are dissolved in 2 mL of PEG 400:DMSO (1:2 v/v) and each animal is administered the test solution at a rate of 0.1 mL/10 g of body weight. […] All animals are observed daily for morbidity and mortality. Four days post-treatment, all animals are weighed and necropsied. Worm counts are conducted with the use of stereoscopes and counters.
SMILES,Rating (C. elegans; dose 100 ppm),Mortality [1] [%],Toxicity [2],Rating (C. elegans; dose 150 ppm)
O=C1OC(=Cc2ccc(F)cc2)C(O)=C1c1ccc(C(F)(F)F)cc1 (mixture of isomers) [R=H; R1=4-CF3—C6H4**; R2=4-F—C6H4],9,95.80,+,
"O=C1OC(=Cc2ccc(Cl)c(Cl)c2)C(O)=C1c1ccc(OC(F)(F)F)cc1 (mixture of isomers) [R=H; R1=4-OCF3—C6H4**; R2=3,4-diCl—C6H3]",9,100.0,+,
N#Cc1ccc(C=C2OC(=O)C(c3ccc(OC(F)(F)F)cc3)=C2O)cc1 (mixture of isomers) [R=H; R1=4-OCF3—C6H4**; R2=4-CN—C6H4],9,88.90,+,
O=C1OC(=Cc2ccc(F)cc2)C(O)=C1c1ccc(Cl)cc1 (mixture of isomers) [R=H; R1=4-Cl—C6H4**; R2=4-F—C6H4],9,72.60,+,
O=C1OC(=Cc2ccc(F)cc2)C(O)=C1c1ccc(OC(F)(F)F)cc1 (mixture of isomers) [R=H; R1=4-OCF3—C6H4**; R2=4-F—C6H4],9,0.00,+,
O=C1O/C(=C\c2ccc(Cl)cc2)C(O)=C1c1ccc(Cl)cc1 [R=H; R1=4-Cl—C6H4; R2=4-Cl—C6H4],,79.78,+,9
O=C1OC(=Cc2ccc(C(F)(F)F)cc2)C(O)=C1c1ccc(OC(F)(F)F)cc1 (mixture of isomers) [R=H; R1=4-OCF3—C6H4**; R2=4-CF3—C6H4],9,55.50,+,
"O=C1OC(=Cc2ccc(F)c(F)c2)C(O)=C1c1ccc(OC(F)(F)F)cc1 (mixture of isomers) [R=H; R1=4-OCF3—C6H4**; R2=3,4-diF—C6H3]",9,100.0,+,
N#Cc1ccc(C2=C(O)C(=Cc3ccc(OC(F)(F)F)cc3)OC2=O)cc1 (mixture of isomers) [R=H; R1=4-CN—C6H4**; R2=4-OCF3—C6H4],9,90.00,+,
